Results as given in PMC10247784, “Physiological activation of human and mouse bitter taste receptors by bile acids” (Communications Biology, 2023).

Biological target: T1, mouse Tas2r144 (Mus musculus, UniProt Q7TQB8)
T1 construct: expressed in transfected cells; host or cells: HEK293T-Gα16gust44
Test: Calcium imaging assay (FLIPR), HEK293T-Gα16gust44 cells transfected with mouse Tas2r144
Assay type: cell-based
Conditions: for Δ F/F: Tas2r144
Experimental: This set of bile acids was chosen because of their commercial availability in high purities, their diversity within the class of bile acids and their previous detection and quantitation in human blood. Stock solutions were prepared in DMSO.
As basal growth medium for the HEK293T-Gα16gust44 cell line[17],[59] served Dulbecco’s modified eagle medium (DMEM) (Thermo Fisher Scientific, Darmstadt, Germany) supplemented with 10 % fetal bovine serum (Sigma-Aldrich, Steinheim, Germany), 2 mM L-glutamine (Sigma-Aldrich, Steinheim, Germany), 100 units/ml penicillin (Sigma Aldrich, Steinheim, Germany) and 100 µg/ml streptomycin (Sigma Aldrich, Steinheim, Germany). Growth conditions were 37 °C, 5 % CO2 and saturated air-humidity[60].
HEK293T-Gα16gust44 cells were seeded on poly-D-lysine (10 µg/ml) coated 96-well plates to reach a confluence of 40-60 % the next day. For transient transfection 150 ng of plasmid DNA containing the receptor of interest and 0.3 µl lipofectamine 2000 (Thermo Fisher Scientific, Darmstadt, Germany) per well were used and transfection took place according to the manual of lipofectamine 2000. […] The empty vector DNA (mock) was transfected as negative control[14],[41].
Cells were loaded using the calcium-sensitive fluorescent dye Fluo-4-AM (Abcam, Cambridge, Great Britain) in the presence of 2.5 mM probenecid (Sigma-Aldrich, Steinheim, Germany) the day after transfection[13],[41]. 1 h after loading, cells were washed with C1 buffer using a BioTek Cell Washer, incubated in the dark for half an hour and washed again. For automated agonist application and measurement of fluorescence changes, a FLIPR^TETRA device (Molecular Devices, San José, United States) was used. Viability of cells was tested by application of 100 nM Somatostatin 14 (Bachem, Bubendorf, Switzerland)[42].
Measured data were negative control corrected by subtracting the signal of the mock-transfected cells and exported to Microsoft Excel using the FLIPR software ScreenWorks 4.2. In Microsoft Excel software, standardization of maximum fluorescence intensities to the basal fluorescence and normalization to the buffer-only control was done to calculate the relative fluorescence changes (ΔF/F).
Initial screening experiments performed in duplicate wells were confirmed by at least one replication and representative traces were selected for display. All dose-response relationships were determined by three independent experiments (biological replicates) performed in duplicates (technical replicates). Threshold concentrations, defined as lowest substance concentrations leading to statistically significant elevated fluorescence changes in receptor-transfected cells compared with empty vector-transfected cells, were determined using SigmaPlot with Student’s t-test to evaluate statistical significance (p < 0.01).

T1 sequence (Q7TQB8 whole entry): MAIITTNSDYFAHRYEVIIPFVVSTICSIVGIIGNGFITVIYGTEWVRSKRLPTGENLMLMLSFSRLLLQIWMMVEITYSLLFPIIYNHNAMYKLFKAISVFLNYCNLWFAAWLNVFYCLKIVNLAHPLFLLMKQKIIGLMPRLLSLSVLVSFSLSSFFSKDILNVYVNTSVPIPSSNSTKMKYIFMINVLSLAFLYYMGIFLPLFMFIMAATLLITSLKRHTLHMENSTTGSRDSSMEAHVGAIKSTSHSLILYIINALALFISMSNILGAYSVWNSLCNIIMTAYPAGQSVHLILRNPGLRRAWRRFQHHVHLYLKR

For `C[C@H](CCC(=O)NCCS(=O)(=O)O)[C@H]1CC[C@H]2[C@@H]3[C@H](O)C[C@@H]4C[C@H](O)CC[C@]4(C)[C@H]3C[C@H](O)[C@]12C` [Taurocholic Acid, taurocholic acid], the “Δ F/F” value (conc. 0,01 mM) was -0.002199, the “Δ F/F” value (conc. 0,1 mM) was 0.02935 and the “Δ F/F” value (conc. 0,03 mM) was 0.001887. For the same compound, the “Δ F/F” value (conc. 0,3 mM) was 0.09426, the “Δ F/F” value (conc. 0,003 mM) was -2.869e-5 and the RLU (Time 0 s) was 0 RLU. The RLU (Time 2 s) was 20.3472 RLU, the RLU (Time 4 s) was -2.315 RLU and the RLU (Time 6 s) was 2.885 RLU. The RLU (Time 8 s) was 19.0475 RLU, the RLU (Time 12 s) was 10.0521 RLU and the RLU (Time 14 s) was 38.5551 RLU. The RLU (Time 16 s) was 31.9896 RLU, the RLU (Time 18 s) was 16.9759 RLU and the RLU (Time 18.781 s) was 35.5911 RLU. For the same compound, the RLU (Time 20.781 s) was -26.0614 RLU, the RLU (Time 22.781 s) was 10.3855 RLU and the RLU (Time 24.781 s) was 42.5149 RLU. The RLU (Time 26.781 s) was 75.1117 RLU, the RLU (Time 28.781 s) was 107.959 RLU and the RLU (Time 30.781 s) was 191.931 RLU. It also gave an RLU (Time 32.781 s) of 233.393 RLU, an RLU (Time 34.781 s) of 329.647 RLU and an RLU (Time 36.781 s) of 353.155 RLU. For the same compound, the RLU (Time 38.781 s) was 375.923 RLU, the RLU (Time 40.781 s) was 418.403 RLU and the RLU (Time 42.781 s) was 459.472 RLU. For the same compound, the RLU (Time 44.781 s) was 478.994 RLU, the RLU (Time 46.781 s) was 502.94 RLU and the RLU (Time 48.781 s) was 488.439 RLU. For the same compound, the RLU (Time 50.781 s) was 507.687 RLU, the RLU (Time 52.781 s) was 535.446 RLU and the RLU (Time 54.781 s) was 537.48 RLU. It also gave an RLU (Time 56.781 s) of 552.298 RLU, an RLU (Time 58.781 s) of 553.568 RLU and an RLU (Time 60.781 s) of 540.78 RLU. It also gave an RLU (Time 62.781 s) of 553.576 RLU, an RLU (Time 64.781 s) of 587.565 RLU and an RLU (Time 66.781 s) of 607.94 RLU. The RLU (Time 68.781 s) was 577.506 RLU, the RLU (Time 70.781 s) was 560.61 RLU and the RLU (Time 72.781 s) was 573.499 RLU. For the same compound, the RLU (Time 74.781 s) was 563.961 RLU, the RLU (Time 76.781 s) was 534.766 RLU and the RLU (Time 78.781 s) was 571.912 RLU. For the same compound, the RLU (Time 80.781 s) was 551.232 RLU, the RLU (Time 82.781 s) was 526.613 RLU and the RLU (Time 84.781 s) was 546.451 RLU. For the same compound, the RLU (Time 86.781 s) was 562.077 RLU, the RLU (Time 88.781 s) was 533.968 RLU and the RLU (Time 90.781 s) was 548.478 RLU. It also gave an RLU (Time 92.781 s) of 529.823 RLU, an RLU (Time 94.781 s) of 519.583 RLU and an RLU (Time 96.781 s) of 507.965 RLU. The RLU (Time 98.781 s) was 551.349 RLU, the RLU (Time 100.781 s) was 524.649 RLU and the RLU (Time 102.781 s) was 541.47 RLU. For the same compound, the RLU (Time 104.781 s) was 532.417 RLU, the RLU (Time 106.781 s) was 501.886 RLU and the RLU (Time 108.781 s) was 527.817 RLU. The RLU (Time 110.781 s) was 463.149 RLU, the RLU (Time 112.781 s) was 531.02 RLU and the RLU (Time 114.781 s) was 478.341 RLU. For the same compound, the RLU (Time 116.781 s) was 478.013 RLU, the RLU (Time 118.781 s) was 466.916 RLU and the RLU (Time 120.781 s) was 480.033 RLU. The RLU (Time 122.781 s) was 446.768 RLU, the RLU (Time 124.781 s) was 466.738 RLU and the RLU (Time 126.781 s) was 436.51 RLU. The RLU (Time 128.781 s) was 391.35 RLU, the RLU (Time 130.781 s) was 423.189 RLU and the RLU (Time 132.781 s) was 388.666 RLU. It also gave an RLU (Time 134.781 s) of 393.586 RLU, an RLU (Time 136.781 s) of 381.514 RLU and an RLU (Time 137.562 s) of 357.695 RLU. It also gave an RLU (Time 143.562 s) of 342.181 RLU, an RLU (Time 149.562 s) of 317.247 RLU and an RLU (Time 155.562 s) of 281.598 RLU. For the same compound, the RLU (Time 161.562 s) was 257.735 RLU, the RLU (Time 167.562 s) was 210.766 RLU and the RLU (Time 173.562 s) was 206.542 RLU. The RLU (Time 179.562 s) was 190.508 RLU, the RLU (Time 185.562 s) was 200.355 RLU and the RLU (Time 191.562 s) was 160.215 RLU. It also gave an RLU (Time 197.562 s) of 155.746 RLU, an RLU (Time 203.562 s) of 134.432 RLU and an RLU (Time 209.562 s) of 105.802 RLU. For the same compound, the RLU (Time 215.562 s) was 143.523 RLU, the RLU (Time 221.562 s) was 59.3524 RLU and the RLU (Time 227.562 s) was 55.9412 RLU. The RLU (Time 233.562 s) was 52.6104 RLU, the RLU (Time 239.562 s) was 63.4802 RLU and the RLU (Time 245.562 s) was 58.9605 RLU. For the same compound, the RLU (Time 293.562 s) was 59.2604 RLU, the RLU (Time 299.562 s) was 83.1975 RLU and the RLU (Time 305.562 s) was 80.6402 RLU. The RLU (Time 311.562 s) was 35.6084 RLU, the RLU (Time 317.562 s) was 31.2984 RLU and the RLU (Time 323.562 s) was -1.058 RLU. It also gave an RLU (Time 329.562 s) of 12.6222 RLU, an RLU (Time 335.562 s) of -16.6341 RLU and an RLU (Time 341.562 s) of 9.34 RLU. It also gave an RLU (Time 347.562 s) of 17.8158 RLU, an RLU (Time 353.562 s) of 33.5062 RLU and an RLU (Time 359.562 s) of 34.8754 RLU. For the same compound, the “Activation threshold concentration Tas2r144” value (p < 0.01 vs empty vector) was 300 µM.
